Data taken from ChEMBL document CHEMBL6103547, “Comprehensive exploration of isocitrate dehydrogenase (IDH) mutations: Tumorigenesis, drug discovery, and covalent inhibitor advances” (Eur J Med Chem, 2025).
Each block holds one molecule with its values, some of them ahead of it.

Assays:
U-87 MG = assay: Antiproliferative activity against human U87; assay type: functional, cell-based, U-87MG ATCC
[1] = molecular target: Isocitrate dehydrogenase [NADP], mitochondrial (Homo sapiens, UniProt P48735, R172K); assay: Inhibition of FLAG-tagged IDH2 R172K mutant (unknown origin) extracted from baculovirus infected Sf9 cells
TF-1 = assay: Antiproliferative activity against human TF-1 cells; assay type: functional, cell-based
[2] = molecular target: Isocitrate dehydrogenase [NADP], mitochondrial (Homo sapiens, UniProt P48735, R140Q); assay: Inhibition of FLAG-tagged IDH2 R140Q mutant (unknown origin) extracted from baculovirus infected Sf9 cells
HCT-116 = assay: Antiproliferative activity against human HCT-116 cells; assay type: functional, cell-based
[3] = Downregulation of HoxA9 expression in human AML3 cells; assay type: functional, cell-based
[4] = Inhibition of IDH2 R172S mutant (unknown origin); set-up: species or system Homo sapiens

Sequence of Isocitrate dehydrogenase [NADP], mitochondrial (Homo sapiens, UniProt P48735, R140Q) (P48735 40-452 R140Q limits assumed): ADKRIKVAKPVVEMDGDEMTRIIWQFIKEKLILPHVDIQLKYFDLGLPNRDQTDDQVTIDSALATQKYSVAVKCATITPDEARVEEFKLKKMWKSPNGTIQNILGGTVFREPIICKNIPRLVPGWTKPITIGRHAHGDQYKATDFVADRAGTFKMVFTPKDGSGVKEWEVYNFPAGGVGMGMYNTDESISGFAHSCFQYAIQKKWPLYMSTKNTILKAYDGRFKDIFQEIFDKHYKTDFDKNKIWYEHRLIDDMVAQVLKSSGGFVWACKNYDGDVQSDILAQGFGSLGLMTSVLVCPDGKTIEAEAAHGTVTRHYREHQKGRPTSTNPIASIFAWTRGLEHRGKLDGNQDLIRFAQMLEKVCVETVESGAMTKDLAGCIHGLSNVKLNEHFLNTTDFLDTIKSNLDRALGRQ
Sequence of Isocitrate dehydrogenase [NADP], mitochondrial (Homo sapiens, UniProt P48735, R172K) (P48735 40-452 R172K limits assumed): as the sequence (P48735 40-452 R140Q limits assumed) above, with Q101R, R133K counted along it

SMILES: CC(C)(O)CNc1nc(Nc2ccnc(C(F)(F)F)c2)nc(-c2cccc(C(F)(F)F)n2)n1 [ENASIDENIB]
- IC50 (U-87 MG): 10 nM
- IC50 [1]: 200 nM
- IC50 (TF-1): 20 nM
- IC50 [2]: 320 nM
- IC50 (HCT-116): 530 nM

- IC50 [3]: 60 nM
SMILES: C[C@H]1C[C@@H](n2c(Nc3ccc(OC(F)(F)F)cc3)nc3cc(CCC(=O)O)ccc32)CC(C)(C)C1 [BAY1436032]

- IC50 [4]: 1030 nM
SMILES: C[C@H](O)c1cccc(NC(=O)c2nn(Cc3ccc(F)cc3)c3c2CN(C(=O)c2ccc[nH]2)C[C@H]3C)c1
